Test results taken from patent US20220041667A1, “TARGETING OF MAKAP-PDE4D3 COMPLEXES IN NEURODEGENERATIVE DISEASE” (The Board of Trustees of the Leland Stanford Junior …, priority 2018, published 2022).

B1: mAKAP-SR-GFP: GFP-tagged fragment encoding the mAKAP spectrin-repeat domains (amino acid residues 586-1286) (protein)
chain: GSDSIKSPVPLLSKNKSQKSSPPAPCHATQNGQVVEAWYGSDEYLALPSHLKQTEVLALKLESLTKLLPQKPRGETIQDIDDWELSEMNSDSEIYPTYHIKKKHTRLGTVSPSSSSDIASSLGESIESGPLSDILSDEDLCLPLSSVKKFTDEKSERPSSSEKNESHSATRSALIQKLMHDIQHQENYEAIWERIEGFVNKLDEFIQWLNEAMETTENWTPPKAETDSLRLYLETHLSFKLNVDSHCALKEAVEEEGHQLLELVVSHKAGLKDTLRMIASQWKELQRQIKRQHSWILRALDTIKAEILATDVSVEDEEGTGSPKAEVQLCHLETQRDAVEQMSLKLYSEQYTSGSKRKEEFANMSKAHAEGSNGLLDFDSEYQELWDWLIDMESLVMDSHDLMMSEEQQQHLYKRYSVEMSIRHLKKSELLSKVEALKKGGLSLPDDILEKVDSINEKWELLGKTLREKIQDTIAGHSGSGPRDLLSPESGSLVRQLEVRIKELKRWLRDTELFIFNSCLRQEKEGTSAEKQLQYFKSLCREIKQRRRGVASILRLCQHLLDDRDTCNLNADHQPMQLIIVNLERRWEAIVMQAVQWQTRLQKKMGKESETLNVIDPGLMDLNGMSEDALEWDETDISNKLISVHEESNDLDQDPEPMLPAVKLEETHHKDSGYEEEAGDCGGSPYTSNITAPSSPHIYQV
modifications: left off: large carriers

Columns and labels:
[1] = system: hippocampal neurons; assay: Neurite extension assay (length of longest neurite) in primary hippocampal neurons; format: cell-based, rat; details: for effect on neurite extension (pharmacological induction): hippocampal neurons, 40 mM KCl, 10 μM FSK, 100 μM IBMX, 20 μM milrinone or 10 μM rolipram for 2 days
Description: Primary rat hippocampal neurons: Hippocampal cultures were prepared from Sprague Dawley rat embryonic day 18 embryos. Briefly, the rat hippocampal CA1-CA3 region was dissected in PBS medium with 10 mM D-glucose and digested with 0.05% trypsin-EDTA in PBS with 11 mM D-glucose for 30 min at 37° C. The dissociated tissues were centrifuged at 250 g for 2 min and then triturated with fire polished glass pipet in Hank's balanced salt solution (HBSS) with calcium and magnesium in plating medium (10% v/v horse serum in DMEM). Dissociated neurons were plated on nitric acid-treated 25-mm cover glass coated with poly-L-lysine in plating medium. Four hours after plating, the medium was replaced with maintenance medium supplemented with 1% N2, 2% B27 (Invitrogen, Carlsbad, Calif., USA), 5 mM D-glucose, 1 mM sodium pyruvate. Four days later, 4 μM arabinosyl cytosine was added to inhibit glial proliferation and the neurons were either transfected with JPEI or infected with adenovirus.
Live cell imaging was performed 36-72 h after transfection/infection as described below. For neurite extension assays, the cells were cultured for two days in DMEM with 1 μg/ml chicken egg albumin and 1 mM sodium pyruvate. 40 mM KCl, 10 μM FSK, 100 μM IBMX, 20 μM Milrinone, 10 μM Rolipram were included as indicated. Two days later, the neurons were fixed and stained with antibodies. Nuclei were counter stained with DAPI and SlowFade Gold antifade solution (Molecular Probes) was added before coverslip mounting. Images were acquired with IPLab or Slidebook 6 by wide-field microscopy (Leica DMI 6000B or Zeiss Axio Observer 7) and processed with Adobe PhotoShop CSS 12.1. The length of the longest neurite for ˜15 neurons average per condition was measured for each experiment with ImageJ with Simple Neurite Tracer plugin. Other neuronal images were acquired using a Zeiss 880 confocal microscope.

[2] = molecular target: PKA (protein kinase A, in Cos-7 cells); assay: cell-based or functional assay

| Molecule | effect on neurite extension (pharmacological induction) [1] | other results |
| --- | --- | --- |
| COc1ccc(C2CNC(=O)C2)cc1OC1CCCC1 (centres unmarked) [rolipram] | induced neurite extension |  |
| mAKAPα WT (N-terminally myc-tagged rat mAKAPα) (from UniProt Q9WVC7 1-2314) |  | amplitude of PN-AKAR4 FRET transient after FSK pulse in Cos-7 cells [2]: 50% |
| [Cl-].[K+] [KCl] | induced neurite extension | increase in axon extension due to KCl depolarization alone ([1]; GFP-expressing hippocampal neurons): 29%; increase in axon extension due to KCl depolarization alone ([1]; mCherry-nesprin-expressing hippocampal neurons): 37% |
| CC(C)Cn1c(=O)n(C)c(=O)c2[nH]cnc21 [IBMX, 3-isobutyl-1-methylxanthine] | induced neurite extension |  |
| Cc1[nH]c(=O)c(C#N)cc1-c1ccncc1 [milrinone] | no effect on neurite growth |  |
| B1 |  | effect on axon outgrowth (longest neurite length) ([1]; hippocampal neurons in defined media and with chronic KCl depolarization, vs GFP control): inhibited axon outgrowth |
